Results published in patent US20220251085A1, “CYSTEINE BINDING COMPOSITIONS AND METHODS OF USE THEREOF” (University of Virginia Patent Foundation, priority 2019, published 2022).

Assays:
[1] = target: T1, human eEF-Sec (Uniprot ID P57772) (Homo sapiens, UniProt P57772); assay: Purine probe labeling of recombinant eEF-Sec expressed in HEK293T cells, gel-based; assay type: cell-based; settings: 50 μM probe, live cells, 0.5 to 2 hours
T1 construct: FLAG; expressed in transfected cells; host or cells: HEK293T
T1 sequence (P57772 1-596): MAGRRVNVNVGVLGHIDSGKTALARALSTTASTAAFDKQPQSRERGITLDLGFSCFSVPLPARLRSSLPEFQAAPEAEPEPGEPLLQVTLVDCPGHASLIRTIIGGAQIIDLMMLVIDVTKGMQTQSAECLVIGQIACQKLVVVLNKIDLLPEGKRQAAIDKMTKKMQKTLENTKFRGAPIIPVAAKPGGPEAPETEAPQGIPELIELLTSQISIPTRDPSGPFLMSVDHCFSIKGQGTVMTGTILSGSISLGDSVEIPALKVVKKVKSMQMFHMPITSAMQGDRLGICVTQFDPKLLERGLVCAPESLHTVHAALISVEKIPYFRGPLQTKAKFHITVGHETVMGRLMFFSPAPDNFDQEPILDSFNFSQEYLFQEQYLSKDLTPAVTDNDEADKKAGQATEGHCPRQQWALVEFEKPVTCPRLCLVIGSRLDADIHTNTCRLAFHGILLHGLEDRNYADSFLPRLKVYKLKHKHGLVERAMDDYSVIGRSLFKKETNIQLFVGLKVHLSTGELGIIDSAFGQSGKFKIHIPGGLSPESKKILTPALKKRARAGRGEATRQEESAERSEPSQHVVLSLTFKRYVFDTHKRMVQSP
Protocol: Methods: HEK293T cells were grown at 37° C. in 5% CO2 until 40% confluent. Recombinant human eEF-Sec (Uniprot ID P57772) was expressed by transient transfection for 48 hours. […] Lysates were spun at 100,000×g for 45 minutes. […] Purine probe modified proteins were conjugated to rhodamine-azide by CuAAC, subjected to SDS-PAGE analysis, and detected by in-gel fluorescence scanning. Comparison of non-transfected (Mock) and transfected proteomes was used to identify the recombinant eEF-Sec purine probe-labeled band. […] Reduction in fluorescent signals from purine probe labeling was indicative of Pi ligand inhibitory activity. Mut represents eEF-Sec mutant where cysteine residue 442 is mutated to alanine (C442A).
SDS-PAGE gels were transferred to nitrocellulose membrane. Nitrocellulose blots were blocked with 5% BSA. Blots were washed five times with TBS-T. Recombinant protein expression was detected using an anti-FLAG primary antibody (1:1,000) followed by fluorescent secondary antibody (1:10,000) to determine if there was equivalent protein expression across different treatment conditions.

[2] = test system: proteomes of DM93, Hela, A549, HEK293T, and Jurkat cells; assay: Quantitative chemical proteomics (LC-MS) of Pu-1 and Pu-2 modified proteins; assay type: cell-based, HUMAN
Protocol: Cells were grown at 37° C. in 5% CO2 until 90% confluent. Once confluent cells were washed with serum free media and treated with purine probes (Pu-1, Pu-2) at a final concentration of 25 μM for 4 hours. Cells were then scraped and washed 3× with cold PBS and lysed in PBS+protease inhibitor. Lysates were spun at 100,000×g for 45 minutes. Purine probe-modified proteins in soluble fractions were coupled to desthiobiotin-azide using copper-catalyzed azide-alkyne cycloaddition (CuAAC; 1 hour, room temperature), probe-modified proteins digested into peptides using trypsin protease, probe-modified peptides enriched by avidin affinity chromatography, and subjected to LC-MS quantitative chemical proteomics as previously described.^15 The following cell lines were used for analysis: DM93, Hela, A549, HEK293T, and Jurkat. […]
Chemical proteomics performed as described in Example 9 determined several protein modification sites targeted by Pu-1 and/or Pu-2. […]

[3] = test system: DM93 cells lysates (soluble fractions); assay: Lysate activity of purine probes, gel-based (in-gel fluorescence); assay type: biochemical; settings: for protein labeling activity in lysates: DM93 soluble fractions, 25 μM, 2 hrs, 37° C.
Protocol: Lysate Activity Method: DM93 cells were grown at 37° C. in 5% CO2 until 90% confluent. Once confluent, cells were scraped and washed 3× times with cold PBS and lysed in PBS+protease inhibitor. Lysates were spun at 100,000×g for 45 minutes. Soluble fractions were treated with 25 μM of halogenated purine probes (unless stated) for 2 hrs (unless stated) at 37° C. Purine probe modified proteins were conjugated to rhodamine-azide by CuAAC, subjected to SDS-PAGE analysis, and detected by in-gel fluorescence scanning. SDS-PAGE gels were stained with Coomassie brilliant blue to determine protein load.

Row | SMILES | labeling of recombinant eEF-SEC [1] | Number of Unique Modified Residues ([2]; Arginine (R)) | Percentage of Modified Residues ([2]; Arginine (R)) [%] | Number of Unique Modified Residues ([2]; Asparagine (N)) | Percentage of Modified Residues ([2]; Asparagine (N)) [%] | Number of Unique Modified Residues ([2]; Aspartic Acid (D)) | Percentage of Modified Residues ([2]; Aspartic Acid (D)) [%] | Number of Unique Modified Residues ([2]; Cysteine (C), Byonic score>300) | Percentage of Modified Residues ([2]; Cysteine (C), Byonic score>300) [%] | Number of Unique Modified Residues ([2]; Glutamic Acid (E)) | Percentage of Modified Residues ([2]; Glutamic Acid (E)) [%] | Number of Unique Modified Residues ([2]; Glutamine (Q)) | Percentage of Modified Residues ([2]; Glutamine (Q)) [%] | Number of Unique Modified Residues ([2]; Histidine (H)) | Percentage of Modified Residues ([2]; Histidine (H)) [%] | Number of Unique Modified Residues ([2]; Lysine (K)) | Percentage of Modified Residues ([2]; Lysine (K)) [%] | Number of Unique Modified Residues ([2]; Methionine (M)) | Percentage of Modified Residues ([2]; Methionine (M)) [%] | Number of Unique Modified Residues ([2]; Serine (S)) | other results
1 | C#CCn1cnc2c(Cl)nc(Cl)nc21 [Pu-2, 2,6-Dichloro-9-(prop-2-yn-1-yl)-9H-purine] | labeled in a time dependent manner | 19 | 1.6 | 0 | 0 | 44 | 3.7 | 952 | 80 | 68 | 5.7 | 39 | 3.3 | 12 | 1.0 | 24 | 2.0 | 7 | 0.59 | 5 | Percentage of Modified Residues ([2]; Serine (S)): 0.42%; Number of Unique Modified Residues ([2]; Threonine (T)): 6; Percentage of Modified Residues ([2]; Threonine (T)): 0.50%; Number of Unique Modified Residues ([2]; Tryptophan (W)): 3; Percentage of Modified Residues ([2]; Tryptophan (W)): 0.25%; Number of Unique Modified Residues ([2]; Tyrosine (Y)): 17; Percentage of Modified Residues ([2]; Tyrosine (Y)): 21.4%; protein labeling activity in lysates [3]: highest protein labeling activity; time dependence of labeling ([3]; proteomes): time dependence in protein labeling
2 | C#CCn1cnc2nc(Cl)nc(Cl)c21 [Pu-1, 2,6-Dichloro-7-(prop-2-yn-1-yl)-7H-purine] | labeled in a time dependent manner | 2 | 0.84 | 0 | 0 | 9 | 3.8 | 196 | 82 | 12 | 5.0 | 3 | 1.3 | 1 | 0.42 | 4 | 1.7 | 2 | 0.84 | 1 | Percentage of Modified Residues ([2]; Serine (S)): 0.42%; Number of Unique Modified Residues ([2]; Threonine (T)): 2; Percentage of Modified Residues ([2]; Threonine (T)): 0.84%; Number of Unique Modified Residues ([2]; Tryptophan (W)): 1; Percentage of Modified Residues ([2]; Tryptophan (W)): 0.42%; Number of Unique Modified Residues ([2]; Tyrosine (Y)): 6; Percentage of Modified Residues ([2]; Tyrosine (Y)): 2.5%; protein labeling activity in lysates [3]: highest protein labeling activity; reactivity of N7 versus N9 tautomers ([3]; lysates): more reactive; concentration dependence of labeling ([3]; proteomes): concentration dependent labeling of proteomes; time dependence of labeling ([3]; proteomes): time dependence in protein labeling
